This is an account of results in US8853193B2, “Thienopyrimidines containing a substituted alkyl group for pharmaceutical compositions” (Boehringer Ingelheim International GmbH, priority 2010, dated 2014).

Structures are written as SMILES.

For orientation: IC50 means the point on the concentration scale where inhibition reaches its midpoint.

Chain of human Mnk2a (Q9HBH9 whole entry): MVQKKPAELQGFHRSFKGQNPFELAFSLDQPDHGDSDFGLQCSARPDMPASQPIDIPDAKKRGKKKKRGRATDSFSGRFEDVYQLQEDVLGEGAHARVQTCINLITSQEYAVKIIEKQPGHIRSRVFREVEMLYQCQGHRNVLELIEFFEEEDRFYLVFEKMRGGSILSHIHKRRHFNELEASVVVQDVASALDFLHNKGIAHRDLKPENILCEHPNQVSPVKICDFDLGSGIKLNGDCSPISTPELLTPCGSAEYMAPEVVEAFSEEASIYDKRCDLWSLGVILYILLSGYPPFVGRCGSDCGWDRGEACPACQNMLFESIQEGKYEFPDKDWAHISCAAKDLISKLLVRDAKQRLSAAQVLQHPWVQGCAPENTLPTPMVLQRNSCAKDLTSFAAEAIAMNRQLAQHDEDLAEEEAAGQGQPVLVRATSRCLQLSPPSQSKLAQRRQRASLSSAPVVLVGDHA

The first assay deals with Mnk2 (Mnk2a or Mnk2b) or Mnk1.
Assay: not given
The settings on record: cells transfected with Mnk2 (Mnk2a or Mnk2b) or Mnk1; cited from earlier work.
With `Nc1ncnc2n[nH]c(Nc3ccc(F)cc3)c12` [CGP57380], the “reduction of phosphorylated eIF4E” value is listed as “strong reduction of phosphorylated eIF4E”.

The target in a further assay is human Mnk2a (Homo sapiens (Human), UniProt Q9HBH9). Put plainly: Mnk2a in vitro kinase assay (indirect competitive fluorescence polarization). Format: biochemical. To be noted: pre-activated GST-Mnk2a 2.5 nM, 20 μM ATP, 30 μM substrate peptide; read-out: MNK2 IC50. Put shortly:
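GST-tagged human Mnk2a expressed in E. coli and glutathione-purified, then activated at 2.5 μM with 150 nM pre-activated NHis-ERK2 and 50 μM ATP in HEPES/KOH pH 7.4, MgCl2, DTT, Brij 78 for 45 min at 30 °C. Phospho-peptide product read by indirect competitive fluorescence polarization against fluorophore-labelled phospho-peptide bound to phospho-specific antibody.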
In general terms: In fluorescence polarisation assays a small probe gives low polarisation when free and higher when bound to something large.
Turning to `Cc1c(C(=O)NCCCN2CCCC2)sc2ncnc(Nc3ccc(C#N)cc3OC(CF)CF)c12` [Compound 48, 4-[4-Cyano-2-(2-fluoro-1-fluoromethyl-ethoxy)-phenylamino]-5-methyl-thieno[2,3-d]pyrimidine-6-carboxylic acid (3-pyrrolidin-1-yl-propyl)-amide], the IC50 came to 0.012 µM.
On the same count and under the same terms, the same measure for `Cc1c(C(=O)NCCCN(C)C)sc2ncnc(Nc3ccc(C#N)cc3OC(CF)CF)c12` [Compound 49, 4-(4-Cyano-2-(2-fluoro-1-fluoromethyl-ethoxy)-phenylamino]-5-methyl-thieno[2,3-d]pyrimidine-6-carboxylic acid (3-dimethylamino-propyl)-amide]: 0.008 µM; for `Cc1c(C(=O)NC2CCN(C)CC2)sc2ncnc(Nc3ccc(C#N)cc3OC(CF)CF)c12` [Compound 50, 4-(4-Cyano-2-(2-fluoro-1-fluoromethyl-ethoxy)-phenylamino]-5-methyl-thieno[2,3-d]pyrimidine-6-carboxylic acid (1-methyl-piperidin-4-yl)-amide]: 0.013 µM.
`Cc1c(C(=O)NCCO)sc2ncnc(Nc3ccc(C#N)cc3OC(CF)CF)c12` [Compound 51, 4-(4-Cyano-2-(2-fluoro-1-fluoromethyl-ethoxy)-phenylamino]-5-methyl-thieno[2,3-d]pyrimidine-6-carboxylic acid (2-hydroxy-ethyl)-amide]: the IC50 was 0.01 µM.
On the same count and under the same terms, the same measure for `Cc1c(C(=O)NCC#CCN(C)C)sc2ncnc(Nc3ccc(C#N)cc3OC(CF)CF)c12` [Compound 52, 4-(4-Cyano-2-(2-fluoro-1-fluoromethyl-ethoxy)-phenylamino]-5-methyl-thieno[2,3-d]pyrimidine-6-carboxylic acid (4-dimethylamino-but-2-ynyl)-amide]: 0.025 µM; for `Cc1c(C(=O)NCC#N)sc2ncnc(Nc3ccc(C#N)cc3OC(CF)CF)c12` [Compound 53, 4-(4-Cyano-2-(2-fluoro-1-fluoromethyl-ethoxy)-phenylamino]-5-methyl-thieno[2,3-d]pyrimidine-6-carboxylic acid cyanomethyl-amide]: 0.007 µM.
The same measure, in the same setting: under `Cc1c(C(N)=O)sc2ncnc(Nc3ccc(F)cc3OC(C)C#N)c12` (centres unmarked) [Compound 54] stands 0.011 µM.
Still for that read-out and setting: under `COC(=O)c1sc2ncnc(Nc3ccc(F)cc3OC(C)C(=O)O)c2c1C` (centres unmarked) [Compound 55, 4-[2-(1-Carboxy-ethoxy)-4-fluoro-phenylamino]-5-methyl-thieno[2,3-d]pyrimidine-6-carboxylic acid methyl ester] stands 5.4 µM.
Regarding `COC(=O)c1sc2ncnc(Nc3ccc(F)cc3OC(C)C(=O)NCCCN)c2c1C` (centres unmarked) [Compound 56, 4-{2-[1-(3-Amino-propylcarbamoyl)-ethoxy]-4-fluoro-phenylamino}-5-methyl-thieno[2,3-d]pyrimidine-6-carboxylic acid methyl ester], the IC50 came out at 0.314 µM.
On the same count and under the same terms, the same measure for `Cc1c(C(=O)NCCO)sc2ncnc(Nc3ccc(F)cc3OC(C)C(=O)NCCCN)c12` (centres unmarked) [Compound 57, 4-{2-[1-(3-Amino-propylcarbamoyl)-ethoxy]-4-fluoro-phenylamino}-5-methyl-thieno[2,3-d]pyrimidine-6-carboxylic acid (2-hydroxy-ethyl)-amide]: 0.11 µM.
Consider `COC(=O)c1sc2ncnc(Nc3ccc(F)cc3OC(C)C(=O)NCCN)c2c1C` (centres unmarked) [Compound 58, 4-{2-[1-(2-Amino-ethylcarbamoyl)-ethoxyl]-4-fluoro-phenylamino}-5-methyl-thieno[2,3-d]pyrimidine-6-carboxylic acid methyl ester], for which the IC50 came out at 0.119 µM.
Turning to `Cc1c(C(=O)NCCO)sc2ncnc(Nc3ccc(F)cc3OC(C)C(=O)NCCN)c12` (centres unmarked) [Compound 59, 4-{2-[1-(2-Amino-ethylcarbamoyl)-ethoxy]-4-fluoro-phenylamino}-5-methyl-thieno[2,3-d]pyrimidine-6-carboxylic acid (2-hydroxy-ethyl)amide], the IC50 came out at 0.029 µM.
The same measure, in the same setting: under `Cc1c(C(N)=O)sc2ncnc(Nc3ccc(F)cc3OC(C)C(C)(C)O)c12` (centres unmarked) [Compound 60, 4-[4-Fluoro-2-(2-hydroxy-1,2-dimethyl-propoxy)-phenylamino]-5-methyl-thieno[2,3-d]pyrimidine-6-carboxylic acid amide] stands 0.037 µM.
In the case of `CCNC(=O)C(C)Oc1cc(F)ccc1Nc1ncnc2sc(C(=O)OC)c(C)c12` (centres unmarked) [Compound 61, 4-[2-(1-Ethylcarbamoyl-ethoxy)-4-fluoro-phenylamino}-5-methylthieno[2,3d]pyrimidine-6-carboxylic acid methyl ester], the IC50 came out at 0.077 µM.
In the case of `COC(=O)c1sc2ncnc(Nc3ccc(F)cc3OC(C)C(=O)NCCN(C)C)c2c1C` (centres unmarked) [Compound 62, 4-{2-[1-(2-Dimethylamino-ethylcabamoyl)-ethoxy]-4-fluoro-phenylamino}-5-methyl-thieno[2,3-d]pyrimidine-6-carboxylic acid methyl ester], the IC50 turned out to be 0.267 µM.
On to `Cc1c(C(=O)NCCCN(C)C)sc2ncnc(Nc3ccc(F)cc3OC(C)C#N)c12` (centres unmarked) [Compound 63], for which the IC50 turned out to be 0.017 µM.
